Assay results reported in US11365187B2, “Pesticidally active pyrazole derivatives” (SYNGENTA PARTICIPATIONS AG, priority 2017, dated 2022).
Read-outs that look alike come from different tables or passages of the source.

What was measured:
Assay type in all cases: in vivo
[1] = test system: Tetranychus urticae (Two-spotted spider mite); assay: Tetranychus urticae feeding/contact activity on bean leaf discs; details: foliar, 192 h, read-out: mortality on mixed population (mobile stages)
Method: Tetranychus urticae (Two-spotted spider mite): Feeding/contact activity
Bean leaf discs on agar in 24-well microtiter plates were sprayed with aqueous test solutions prepared from 10′000 ppm DMSO stock solutions. After drying the leaf discs were infested with a mite population of mixed ages. The samples were assessed for mortality on mixed population (mobile stages) 8 days after infestation.

[2] = test system: Plutella xylostella (Diamond back moth); assay: Plutella xylostella feeding/contact activity on artificial diet; details: 120 h
Method: Plutella xylostella (Diamond back moth): Feeding/contact activity
24-well microtiter plates with artificial diet were treated with aqueous test solutions prepared from 10′000 ppm DMSO stock solutions by pipetting. After drying, the plates were infested with L2 larvae (10 to 15 per well). The samples were assessed for mortality 5 days after infestation.

[3] = test system: Thrips tabaci (Onion thrips); assay: Thrips tabaci feeding/contact activity on sunflower leaf discs; details: foliar, 144 h
Method: Thrips tabaci (Onion thrips): Feeding/Contact activity
Sunflower leaf discs were placed on agar in 24-well microtiter plates and sprayed with aqueous test solutions prepared from 10′000 ppm DMSO stock solutions. After drying the leaf discs were infested with a thrips population of mixed ages. The samples were assessed for mortality 6 days after infestation.

[4] = test system: Diabrotica balteata (Corn root worm); assay: Diabrotica balteata (Corn root worm) mortality on sprayed maize sprouts; details: 96 h
Method: Diabrotica balteata (Corn root worm):
Maize sprouts placed onto an agar layer in 24-well microtiter plates were treated with aqueous test solutions prepared from 10′000 ppm DMSO stock solutions by spraying. After drying, the plates were infested with L2 larvae (6 to 10 per well). The samples were assessed for mortality 4 days after infestation.

[5] = test system: Myzus persicae (Green peach aphid); assay: Myzus persicae feeding/contact activity on sunflower leaf discs; details: foliar, 144 h
Method: Myzus persicae (Green peach aphid): Feeding/Contact activity
Sunflower leaf discs were placed onto agar in a 24-well microtiter plate and sprayed with aqueous test solutions prepared from 10′000 ppm DMSO stock solutions. After drying, the leaf discs were infested with an aphid population of mixed ages. The samples were assessed for mortality 6 days after infestation.

[6] = test system: Spodoptera littoralis (Egyptian cotton leaf worm); assay: Spodoptera littoralis feeding/contact activity on cotton leaf discs; details: foliar, 72 h
Method: Spodoptera littoralis (Egyptian cotton leaf worm): Feeding/contact activity
Cotton leaf discs were placed onto agar in 24-well microtiter plates and sprayed with aqueous test solutions prepared from 10′000 ppm DMSO stock solutions. After drying the leaf discs were infested with five L1 larvae. The samples were assessed for mortality 3 days after infestation. […] 2, 3, 4, 5, 6, 7, 8, 9, 10, 11, 12, 13, 14, 15, 16, 17, 18, 19, 20, 21, 22, 23, 24, 25, 26, 27, 28 and 29.

[7] = test system: Euschistus heros (Neotropical Brown Stink Bug); assay: Euschistus heros feeding/contact activity on soybean leaves; details: 120 h
Method: Euschistus heros (Neotropical Brown Stink Bug): Feeding/contact activity
Soybean leaves on agar in 24-well microtiter plates were sprayed with aqueous test solutions prepared from 10′000 ppm DMSO stock solutions. After drying the leaves were infested with N2 nymphs. The samples were assessed for mortality 5 days after infestation.

[8] = application rate 200 ppm, mite population of mixed ages, assessed 8 days after infestation
[9] = application rate 200 ppm, L2 larvae, assessed 5 days after infestation, read-out: mortality
[10] = application rate 200 ppm, thrips population of mixed ages, assessed 6 days after infestation, read-out: mortality
[11] = application rate 200 ppm, L2 larvae, assessed 4 days after infestation, read-out: mortality
[12] = application rate 200 ppm, aphid population of mixed ages, assessed 6 days after infestation, read-out: mortality
[13] = application rate 200 ppm, L1 larvae, assessed 3 days after infestation, read-out: mortality
[14] = application rate 200 ppm, N2 nymphs, assessed 5 days after infestation, read-out: mortality

Measured: mortality at 200 ppm

CCN(C(=O)c1cc(-c2cnn(-c3c(OC(F)F)c(C(F)(C(F)(F)F)C(F)(F)F)nn3C)c2)ccc1Cl)C1(C#N)CC1 [Example 3, 2-chloro-N-(1-cyanocyclopropyl)-5-[1-[4-(difluoromethoxy)-2-methyl-5-[1,2,2,2-tetrafluoro-1-(trifluoromethyl)ethyl]pyrazol-3-yl]pyrazol-4-yl]-N-ethyl-benzamide]
≥ 80%: [1]; [8] | [2]; [9] | [3]; [10] | [4]; [11] | [5]; [12] | [6]; [13] | [7]; [14]

CN(C(=O)c1cc(-c2cnn(-c3c(OC(F)F)c(C(F)(C(F)(F)F)C(F)(F)F)nn3C)c2)ccc1Cl)C1(C#N)CC1 [Example 4, 2-chloro-N-(1-cyanocyclopropyl)-5-[1-[4-(difluoromethoxy)-2-methyl-5-[1,2,2,2-tetrafluoro-1-(trifluoromethyl)ethyl]pyrazol-3-yl]pyrazol-4-yl]-N-methyl-benzamide]
≥ 80%: [1]; [8] | [2]; [9] | [3]; [10] | [4]; [11] | [5]; [12] | [6]; [13] | [7]; [14]

CC(=O)N(C(=O)c1cc(-c2cnn(-c3c(OC(F)F)c(C(F)(C(F)(F)F)C(F)(F)F)nn3C)c2)ccc1Cl)C1(C#N)CC1 [Example 12, N-acetyl-2-chloro-N-(1-cyanocyclopropyl)-5-[1-[4-(difluoromethoxy)-2-methyl-5-[1,2,2,2-tetrafluoro-1-(trifluoromethyl)ethyl]pyrazol-3-yl]pyrazol-4-yl]benzamide]
≥ 80%: [1]; [8] | [2]; [9] | [3]; [10] | [4]; [11] | [5]; [12] | [6]; [13] | [7]; [14]

COC(=O)N(C(=O)c1cc(-c2cnn(-c3c(OC(F)F)c(C(F)(C(F)(F)F)C(F)(F)F)nn3C)c2)ccc1Cl)C1(C#N)CC1 [Example 18, methyl N-[2-chloro-5-[1-[4-(difluoromethoxy)-2-methyl-5-[1,2,2,2-tetrafluoro-1-(trifluoromethyl)ethyl]pyrazol-3-yl]pyrazol-4-yl]benzoyl]-N-(1-cyanocyclopropyl)carbamate]
≥ 80%: [1] | [2] | [3] | [4] | [5] | [6] | [7]

Cn1nc(C(F)(C(F)(F)F)C(F)(F)F)c(OC(F)F)c1-n1cc(-c2cnc(Cl)c(C(=O)NC3(C#N)CC3)c2)cn1 [Example 19, 2-chloro-N-(1-cyanocyclopropyl)-5-[1-[4-(difluoromethoxy)-2-methyl-5-[1,2,2,2-tetrafluoro-1-(trifluoromethyl)ethyl]pyrazol-3-yl]pyrazol-4-yl]pyridine-3-carboxamide]
≥ 80%: [1]; [8] | [2]; [9] | [3]; [10] | [4]; [11] | [5]; [12] | [6]; [13] | [7]; [14]
